Data taken from PubChem BioAssay AID2060621 (Molecular Pharmacology Branch, DTP, NCI, 2025).

Tested on: 324938-238-R-J1-PDC complex spheroids viability
Experiment: Anticancer human tumor 324938-238-R-J1-PDC patient-derived bladder carcinoma cell line growth inhibition [CLK]
Conditions: for IC50: curve of first compound; for viability, T/C: stronger effect = lower value
Source text: A high-throughput screen of multi-cell type tumor spheroids was designed to identify active combinations of […] and targeted small molecules. Complex spheroids include a stromal component modeled by human endothelial cells (HUVEC) and fibroblasts modeled by human mesenchymal stem cells (MSCs). The concentration ranges selected for each drug and investigational agent were based upon clinically achievable concentrations if the clinical Cmax of the agent was known.
Compounds. The drugs and investigational agents: cirtuvivint (SM08502; NSC835563), CC-671 (NSC850746), vemurafenib (NSC761431), tapotoclax (NSC804041), sotorasib (NSC818433), adagrasib (NSC831453), MRTX-1133 (NSC836407), BAY2416964 (NSC825713), copanlisib (NSC816437), inavolisib (NSC800729), abemaciclib (NSC768073), osimertinib (NSC779217), entinostat (NSC756642), eltanexor (KPT-8602, NSC794443), venetoclax (NSC766270), ceralasertib (NSC777638), bortezomib (NSC756655), olaparib (NSC753686), talazoparib (NSC767125), alisertib (NSC759677), peposertib (NSC802822), gemcitabine (NSC613327), 5-fluorouracil (NSC19893), SN-38 (NSC673596), oxaliplatin (NSC266046), paclitaxel (NSC125973), and doxorubicin (NSC123127), were obtained from the National Cancer Institute (NCI) Developmental Therapeutics Program Chemical Repository. The FDA-approved anticancer drug set is available from the Developmental Therapeutics Program at https://dtp.cancer.gov/organization/dscb/obtaining/available plates.htm. […] The stock solutions were prepared in dimethyl sulfoxide (DMSO, Sigma-Aldrich, St. Louis, MO, cat. D2650), except for the platinum complexes which were prepared in saline (Quality Biological, Gaithersburg, MD, cat. 114-055-101), at 800-fold the tested concentration and stored at -70 degrees C prior to their use. All drugs and investigational agents were tested over a range starting from a high concentration at or near the clinical Cmax and decreasing in half-log increments. If the clinical Cmax for an agent had not been determined, the highest concentration tested was 10 microM.
Cell Culture. All cells were maintained in an incubator at 37 degrees C and 5% CO2 with 95% humidity. The PDC lines were cultured according to standard operating procedures established by the NCI PDMR. Briefly, all PDCs were thawed and cultured in Matrigel-coated flasks prepared with a working solution of 1X Ham's F-12 nutrient mix, without supplementation (Invitrogen, Waltham, MA, cat. 11765054), 100 U/mL penicillin-streptomycin (Invitrogen, cat. 15140122), and 2.5% Matrigel (Corning Inc., Corning, NY, cat. 354248) for the first three passages. The 947758-054-R-J2-PDC line was cultured in 6B/Colon 1A media, which includes advanced DMEM/F-12 (Thermo Fisher Scientific, cat. 12634028), 10 mM HEPES (Thermo Fisher Scientific, cat. 15630080), 1X GlutaMAX supplement (Thermo Fisher Scientific, cat. 35050061), 0.1 mg/mL primocin (InvivoGen, cat. ant-pm-2), 10% defined fetal bovine serum, heat inactivated (HyClone Laboratories Inc., cat. SH30070.03HI), 1.25 mM N-Acetyl-L-cysteine (Sigma-Aldrich, cat. A9165), 10 mM nicotinamide (Sigma-Aldrich, cat. N0636), 1X B-27 supplement (Thermo Fisher Scientific, cat. 17504044), 1X N-2 supplement (Thermo Fisher Scientific, cat. 17502048), and 10 microM Y-27632 dihydrochloride (Tocris Bioscience, cat. 1254). The 876862-298-R-J1-PDC was cultured in 6E media, which includes all 6B/Colon 1A media components plus 50% L-WRN conditioned media (ATCC, cat. CRL-3276), 50 ng/mL recombinant human EGF recombinant protein (hEGF; Thermo Fisher Scientific, cat. PHG0311), 10 ng/mL recombinant human fibroblast growth factor 10 (hGFG-10; PeproTech, cat. 100-26), 1 ng/mL recombinant human fibroblast growth factor 2 (hFGF-2; PeproTech, cat. 100-18B), and 1 µM prostaglandin E2 (PGE2; Tocris, cat. 2296). The 227483-062-R1-J1-PDC line was cultured in Panc media, containing all 6E components except hFGF-2, with the addition of 500 nM SB-431542 (Selleckchem, cat. S1067) and 10 nM gastrin (Tocris, cat. 3006). […]
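Note: viability read after seven days of drug exposure.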
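Throughout, for viability, T/C: 100% = DMSO vehicle control wells.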

## CC(=O)O[C@H]1C(=O)[C@@]2(C)[C@H]([C@H](OC(=O)c3ccccc3)[C@]3(O)C[C@H](OC(=O)[C@H](O)[C@@H](NC(=O)c4ccccc4)c4ccccc4)C(C)=C1C3(C)C)[C@]1(OC(C)=O)CO[C@@H]1C[C@@H]2O + CN1CCN(c2cc(C(=O)Nc3cc4cc(-c5cnn(C)c5)ccc4cn3)ccn2)CC1
Second compound 0.0316 µM
  IC50: < 31.6 nM
Second compound 0.1 µM
  IC50: < 31.6 nM
Second compound 0.316 µM
  IC50: < 31.6 nM
Second compound 1 µM
  IC50: < 31.6 nM
Second compound 3.16 µM
  IC50: < 31.6 nM
Second compound 10 µM
  IC50: < 31.6 nM
Second compound 0.0316 µM, first compound 0.0316 µM
  viability, T/C: 14.2%
Second compound 0.0316 µM, first compound 0.1 µM
  viability, T/C: 13.8%
Second compound 0.0316 µM, first compound 0.316 µM
  viability, T/C: 14.7%
Second compound 0.0316 µM, first compound 1 µM
  viability, T/C: 12.9%
Second compound 0.0316 µM, first compound 3.16 µM
  viability, T/C: 14.6%
Second compound 0.0316 µM, first compound 10 µM
  viability, T/C: 15.7%
Second compound 0.1 µM, first compound 0.0316 µM
  viability, T/C: 13.7%
Second compound 0.1 µM, first compound 0.1 µM
  viability, T/C: 14%
Second compound 0.1 µM, first compound 0.316 µM
  viability, T/C: 13.6%
Second compound 0.1 µM, first compound 1 µM
  viability, T/C: 13.8%
Second compound 0.1 µM, first compound 3.16 µM
  viability, T/C: 14.5%
Second compound 0.1 µM, first compound 10 µM
  viability, T/C: 16.9%
Second compound 0.316 µM, first compound 0.0316 µM
  viability, T/C: 16.9%
Second compound 0.316 µM, first compound 0.1 µM
  viability, T/C: 15.6%
Second compound 0.316 µM, first compound 0.316 µM
  viability, T/C: 15.2%
Second compound 0.316 µM, first compound 1 µM
  viability, T/C: 16.9%
Second compound 0.316 µM, first compound 3.16 µM
  viability, T/C: 15%
Second compound 0.316 µM, first compound 10 µM
  viability, T/C: 18%
Second compound 1 µM, first compound 0.0316 µM
  viability, T/C: 0.92%
Second compound 1 µM, first compound 0.1 µM
  viability, T/C: 0.96%
Second compound 1 µM, first compound 0.316 µM
  viability, T/C: 0.69%
Second compound 1 µM, first compound 1 µM
  viability, T/C: 1.04%
Second compound 1 µM, first compound 3.16 µM
  viability, T/C: 0.73%
Second compound 1 µM, first compound 10 µM
  viability, T/C: 0.69%
Second compound 3.16 µM, first compound 0.0316 µM
  viability, T/C: 0.17%
Second compound 3.16 µM, first compound 0.1 µM
  viability, T/C: 0.22%
Second compound 3.16 µM, first compound 0.316 µM
  viability, T/C: 0.22%
Second compound 3.16 µM, first compound 1 µM
  viability, T/C: 0.13%
Second compound 3.16 µM, first compound 3.16 µM
  viability, T/C: 0.21%
Second compound 3.16 µM, first compound 10 µM
  viability, T/C: 0.18%
Second compound 10 µM, first compound 0.0316 µM
  viability, T/C: 0.13%
Second compound 10 µM, first compound 0.1 µM
  viability, T/C: 0.16%
Second compound 10 µM, first compound 0.316 µM
  viability, T/C: 0.51%
Second compound 10 µM, first compound 1 µM
  viability, T/C: 0.16%
Second compound 10 µM, first compound 3.16 µM
  viability, T/C: 0.28%
Second compound 10 µM, first compound 10 µM
  viability, T/C: 0.28%
